Source: paper PMC4708624, “The metabolism and de-bromination of bromotyrosine in vivo” (Free Radical Biology & Medicine, 2016)
Where two headings read alike, the source gives them in different places.

How the values were obtained:
[1] = Endogenous bromination of HPA: urine monitoring after intraperitoneal [D6]HPA; format: in vivo; conditions: healthy rats, intraperitoneal injection of [D6]HPA, data not shown
Source text: It is not known, whether or not, bromo-HPA is exclusively derived from the metabolism of bromotyrosine. […] Such reaction may occur for bromotyrosine as well, and needs to be explored in future investigations. Likewise, we previously reported that nitro-HPA is not exclusively derived from nitrotyrosine metabolism, and it is mainly formed by nitration of HPA in both humans and rats, [29]. To determine whether or not bromo-HPA could be formed by endogenous bromination of HPA in healthy rats, deuterium-labeled HPA ([D6]HPA) was synthesized and injected into healthy rats as described. The formation of deuterated bromo-HPA was then monitored in urine samples.

[2] = rats; for Molar percentage of the excreted metabolites in 24-h urine (% of infused [D3]bromotyrosine) / Total amounts (nmole) excreted in 24-h urine: intraperitoneal injection of 500 nmole [D3]bromotyrosine
Protocol: ^13C-Labeled internal standard (5 ng) was added to 20 µl of rat urine and diluted to 1 ml of total volume with 0.1 % (v/v) TFA/water (pH 5.0). The samples were extracted using LC18 reverse phase column, as described above. Bromotyrosine and tyrosine were derivatized with ethyl heptafluorobutyrate and silylated with tert-butyldimethylsilyl, as described, [17], [18]. Derivatized samples were dried under nitrogen, and redissolved in 20 µl of n-undecane. Samples were applied to a GC equipped with a 15-m DB-1701 (J&W Scientific, Folsom, CA) capillary column (0.25-mm internal diameter, […]), interfaced with a mass spectrometer (Trio 1000; Fisons Instruments, Beverly, MA). The ion source and interface temperatures were set at 200 and 320 °C, respectively. Samples were analyzed in negative-ion chemical ionization mode with ammonia as the reagent gas, using 1 µl of each sample for injection. The initial column temperature was maintained at 150 °C for 1 min increasing to 300 °C at 20 °C/min. Ions were monitored at 489, 492, and 498 mass units for authentic, [D3] and [^13C9]bromotyrosine, respectively (Table 1). For measurement of tyrosine, samples were monitored at 407, 410 and 415 m/z for authentic, [D3]tyrosine and [^13C9]tyrosine, respectively. Concentrations were calculated by ratio to known ^13C9-labeled internal standards.
^13C-Labeled internal standard (5 ng) was added to 20 µl of rat urine and diluted to 1 ml with 0.1 % (v/v) TFA/water (pH 5.0). The samples were extracted using LC18 reverse-phase column as described above. The samples were derivatized to the pentafluorobenzyl ester by the addition of 20 µl of di-isopropyl ethylamine in acetonitrile and […] of 10 % (v/v) pentafluorobenzyl bromide in acetonitrile for 1 h at room temperature (21–23 °C), dried under nitrogen, and redissolved in […] of n-undecane for GC/MS analysis, [14]. The GC/MS set up was as described above, and ions were monitored at 409, 412, and 417 mass units for authentic, [D3] and [^13C8]bromo-HPA, respectively, with single-ion monitoring (Table 1). For measuring HPA, samples were monitored at 331, 334, and 339 mass units for authentic, [D3] and [^13C8]HPA, respectively. The concentrations were calculated from the known ^13C8-labeled internal standards.
Male Sprague-Dawley rats (n=3 in each group) were given a single intraperitoneal injection of [D3]bromotyrosine (0.50 µmol). The animals were then transferred to standard metabolic cages, and urine samples were collected for 24 h. The levels of deuterated bromotyrosine, tyrosine, bromo-HPA, and HPA were measured in the collected urine samples, as described above.

HepG2 cells = conditions: 24 h with 250 nmoles [D3]bromotyrosine (25 µM, 10 ml)
Protocol: HepG2 cells (ECACC, Wiltshire, UK) were maintained in MEM (minimum Eagle's medium) supplemented with 10% fetal calf serum. Monolayer HepG2 cells were plated in 175 cm^3 vented tissue culture flasks until 70% confluent, when they were incubated with [D3]bromotyrosine (final concentration 25 µM). 24 h after incubation with [D3]bromotyrosine, cells were washed two times with PBS and were detached from the flask using a cell scraper. Detached cells were washed and re-suspended in 2 ml of PBS. Cell suspensions were subjected to protein precipitation by adding 1 ml of ice-cold chloroform/methanol (2:1, v/v) solution. After centrifugation (1000×g for 20 min), protein precipitates were washed with methanol and lyophilized under vacuum for assessment of protein-bound [D3]bromotyrosine and [D3]tyrosine as described [9], [17], [18]. […] The samples were then derivatized with ethyl heptafluorobutyrate and silylated with tert-butyldimethylsilyl, and monitored for ion masses of 492, 498, 410, 415 for [D3]bromotyrosine, [^13C9]bromotyrosine, [D3]tyrosine and [^13C9]tyrosine, respectively (Table 1) using negative-ion chemical ionization GC/MS [9], [17], [18]. […] All data are expressed as mean±standard error.

[3] = biological target: T1, Iodotyrosine dehalogenase 1 (DEHAL1) (Homo sapiens, UniProt Q6PHW0); assay: Inhibition of DEHAL1 deiodinase activity (radioiodide formation from [125I]iodotyrosine); format: biochemical; conditions: 0.01–100 μM, 60 min at 37 °C, NADPH, dithiothreitol
T1 construct: made in house; host or cells: HEK293 cells transfected with DEHAL1 cDNA in pcDNA3.1; used as cell lysate
T1 sequence (Q6PHW0 1-289): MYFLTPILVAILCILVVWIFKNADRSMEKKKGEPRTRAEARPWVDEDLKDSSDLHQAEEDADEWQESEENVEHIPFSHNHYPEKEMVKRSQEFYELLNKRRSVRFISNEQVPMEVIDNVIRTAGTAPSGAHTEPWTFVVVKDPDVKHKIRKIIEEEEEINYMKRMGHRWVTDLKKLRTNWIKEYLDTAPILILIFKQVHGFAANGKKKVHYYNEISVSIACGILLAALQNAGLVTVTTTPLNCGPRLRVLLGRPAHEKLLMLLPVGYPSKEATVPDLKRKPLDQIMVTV
Protocol: (§1) Iodotyrosine dehalogenase 1 (DEHAL1) was obtained from HEK293 cells transfected with DEHAL1 cDNA, using a pcDNA3.1 expression vector [9], [19]. To determine whether bromotyrosine, di-bromotyrosine or bromo-HPA interact with iodotyrosine dehalogenase, deiodinase activity was measured based on radioiodide formation from [125I]iodotyrosine. Incubation mixtures contained [125I]iodotyrosine (∼100,000 cpm mixed with 0.1 μM unlabeled iodotyrosine), DEHAL1 enzyme, and varying amounts of iodotyrosine, bromotyrosine, di-bromotyrosine, bromp-HPA and tyrosine (0.01–100 μM final concentration) in 100 μl of PBS containing NADPH (100 μM), EDTA (2 mM), and dithiothreitol (10 mM), [19]. Mixtures were incubated in duplicate for 60 min at 37 °C, and the reactions were stopped by addition of 0.9 ml of 10% acetic acid on ice. The radioiodide in the mixture was separated from the remaining [125I]iodotyrosine with ion exchange chromatography on Dowex columns. The columns were washed with 10 % acetic acid and eluted with 8 ml of 1 mM ammonia solution. Blank incubations without enzyme were used to correct for non-enzymatic deiodination. To determine whether bromotyrosine or di-bromotyrosine could act as a substrate of DEHAL1, the brominated or iodinated tyrosine derivatives (1 μM) were incubated with DEHAL1 in 100 μl of PBS containing NADPH (100 μM), EDTA (2 mM), and dithiothreitol (10 mM). Mixtures were then incubated in duplicate for 60 min at 37 °C, and the reaction was stopped by addition of 1 ml of 10 % acetic acid on ice. Substrate levels were measured using HPLC as described. Cell lysates from HEK293 cells transfected with empty pcDNA3.1 plasmid were used as control. In experiments where di-bromotyrosine, or di-iodotyrosine was used as substrate, concentrations of mono-bromotyrosine and mono-iodotyrosine were measured as a product of de-halogenation.

[4] = biological target: T1, Iodotyrosine dehalogenase 1 (DEHAL1); assay: Dehalogenation of halogenated tyrosines as substrates of DEHAL1 (HPLC); format: biochemical; conditions: for Substrate converted by DEHAL1: substrate 1 μM, NADPH 100 μM, dithiothreitol 10 mM; for Substrate converted by DEHAL1 / Formation of mono-halogenated tyrosine as product of de-halogenation of the di-halogenated substrate by DEHAL1: 60 min at 37 °C; for Formation of mono-halogenated tyrosine as product of de-halogenation of the di-halogenated substrate by DEHAL1: di-iodotyrosine or di-bromotyrosine 1 μM as substrate
Protocol: as §1

[5] = Identification of urinary metabolites of di-bromotyrosine in vivo (full scan GC/MS); parameters: species or system Sprague-Dawley rats; conditions: rats, intraperitoneal 30 µmol, 24 h urine, compared with tyrosine injected animals
Protocol: A similar method used by Ohshima et al. was used for identification of urinary metabolites of di-bromotyrosine. […] Urine was collected in metabolic cages for 24 h. Urine samples were acidified to pH 1.0 with HCl and extracted with an equivalent volume of ethyl acetate.

[6] = biological target: T1, Iodotyrosine dehalogenase 1 (DEHAL1); parameters: method as in PMID 17686770; conditions: previous report ref 9; cited from earlier work
[7] = parameters: method as in PMID 17686770; conditions: deuterium-labeled metabolites after infusion of deuterium-labeled chlorotyrosine ref 9; cited from earlier work
[8] = Incubation of bromo-HPA with rat liver homogenates; format: in vitro ADME; conditions: data not shown

[D5]bromo-HPA
Detection of deuterated bromo-HPA in urine [1]: unable to detect

[D3]tyrosine
Molar percentage of the excreted metabolites in 24-h urine (% of infused [D3]bromotyrosine) [2]: Undetectable | Total amounts (nmole) excreted in 24-h urine [2]: Undetectable | [D3]tyrosine detectable in cellular proteins (HepG2 cells): 6.68 ± 0.52 nmol

N[C@@H](Cc1cc(Br)c(O)c(Br)c1)C(=O)O [di-bromotyrosine, 3,5-di-bromotyrosine]
Inhibition of DEHAL1-induced deiodinase activity [3]: could inhibit DEHAL1-induced deiodinase activity in a concentration-dependent manner | Substrate converted by DEHAL1 [4]: 4% | Urinary metabolites identified [5]: di-bromo-HPA and mono-bromo-HPA

N[C@@H](Cc1ccc(O)c(Cl)c1)C(=O)O [chlorotyrosine, 3-chlorotyrosine]
De-chlorination by DEHAL1 in vitro [6]: unable to show a significant de-chlorination

N[C@@H](Cc1ccc(O)c(I)c1)C(=O)O [iodotyrosine, reference compound]
Formation of mono-halogenated tyrosine as product of de-halogenation of the di-halogenated substrate by DEHAL1 [4]: 7% | Substrate converted by DEHAL1 [4]: 83%

N[C@@H](Cc1ccc(O)cc1)C(=O)O [tyrosine]
Inhibition of DEHAL1-induced deiodinase activity [3]: Neither tyrosine nor bromo-HPA showed the ability to inhibit deiodination

deuterated 3-bromo-4-hydroxyphenylacetic acid [[D3]Bromo-HPA]
Molar percentage of the excreted metabolites in 24-h urine (% of infused [D3]bromotyrosine) [2]: 0.43±0.04% | Total amounts (nmole) excreted in 24-h urine [2]: 2.15 ± 0.21 nmol | Molar percentage of the excreted metabolites in 24-h urine (% of infused [D3]bromotyrosine) ([2]; listed as [D3]bromo-HPA): 0.43±0.04%

N[C@@H](Cc1cc(I)c(O)c(I)c1)C(=O)O [di-iodotyrosine, reference compound]
Substrate converted by DEHAL1 [4]: 70%

[2H]c1cc(O)c([2H])c([2H])c1CC(=O)O [[D3]HPA, [D3]4-hydroxyphenylacetic acid]
Molar percentage of the excreted metabolites in 24-h urine (% of infused [D3]bromotyrosine) [2]: 1.33±0.26% | Total amounts (nmole) excreted in 24-h urine [2]: 6.66 ± 1.33 nmol | Molar percentage of the excreted metabolites in 24-h urine (% of infused [D3]bromotyrosine) ([2]; listed as [D3]4-hydroxyphenylacetic acid): ~ 1.3%

O=C(O)Cc1ccc(O)cc1 [HPA, 4-hydroxyphenylacetic acid]
Urinary excretion rate relative to un-metabolized bromotyrosine ([2]; deuterium-labeled metabolites, 500 nmole [D3]bromotyrosine): 10.7 fold | Urinary excretion rate relative to un-metabolized chlorotyrosine [7]: 35.6 fold

O=C(O)Cc1ccc(O)c(Br)c1 [bromo-HPA, 3-bromo-4-hydroxyphenylacetic acid]
Formation of de-brominated products on incubation with rat liver homogenates [8]: not associated with formation of de-brominated products | Inhibition of DEHAL1-induced deiodinase activity [3]: Neither tyrosine nor bromo-HPA showed the ability to inhibit deiodination | Formation of de-brominated products on incubation with DEHAL1 ([4]; data not shown): not associated with formation of de-brominated products

O=C(O)Cc1ccc(O)c(Cl)c1 [chloro-HPA, 3-chloro-4-hydroxyphenylacetic acid]
Urinary excretion rate relative to un-metabolized chlorotyrosine [7]: 3.3 fold

N[C@@H](Cc1ccc(O)c(Br)c1)C(=O)O [bromotyrosine, 3-bromotyrosine]
Inhibition of DEHAL1-induced deiodinase activity [3]: could inhibit DEHAL1-induced deiodinase activity in a concentration-dependent manner | Formation of mono-halogenated tyrosine as product of de-halogenation of the di-halogenated substrate by DEHAL1 [4]: 3% | Substrate converted by DEHAL1 [4]: 18%
